How the values were obtained:
[1] = Deodorizing activity by head-space method using gas chromatography (general statements)
From the text: The resent inventors have researched on various materials to discover the effective deodorant in the head-space method using a gas chromatography.

[2] = Test 1 deodorizing effect test (head-space gas chromatography, pH 7.5); details: reduction ratio of methylmercaptan vs sample-free system; sample 7.5 mg/ml, pH 7.5, 25 ppm sodium methylmercaptan, 30 minutes at 37° C.
Procedure: After 1.0 ml of the sample solution and 0.5 ml of 25 ppm sodium methylmercaptan was added in a vial to shake the same for 30 minutes at 37° C., and then 200 μl of a vapor phase component in the vial was gathered. An amount of formed methylmercaptan was measured by the gas chromatography to compare the same with a sample-free system, thereby to find a reduction ratio of methylmercaptan as a deodorizing coefficient. […] The gas chromatography uses “GC-9A” commercially available from Shimazu Manufacturing Co., Ltd. The measuring conditions were described below. [table]

[3] = Gas chromatography analysis of sulfides with caramels and maltols; details: garlic and onion odor ingredients
Procedure: Also, in Japanese laid-open publication 62-169720, it is also disclosed that caramels and maltols (3-hydroxy-2-methyl-γ-pyrone) obtained from heating sucrose or glucose show deodorizing effect against garlic and onion odors. If, however, the odor composition was analyzed by a gas chromatography, then no change in odor composition was observed.

[4] = Test 3 deodorizing effect test against ammonia (Kitagawa detecting tube); details: 50 mg sample in 1.96 ml water, 40 μl ammonia solution (0.28%), 5 minutes at 37° C.
Procedure: Each of 50 mg of the palatinose-derived thermal decomposition of Example 1 and sodium copper chlorophyllin was dissolved into 1.96 ml of water in 100 ml of the vial respectively. Then, 40 μl of an ammonia solution (0.28%) was added and shaken for 5 minutes at 37° C. and 100 ml of the vapor phase component in the vial was measured under a vacuum pressure by use of a Kitagawa detecting tube (ammonia No.3). The deodorizing rate of each sample was calculated from the concentration of ammonia in case of addition of no sample.

OC[C@H]1O[C@H](OC[C@H]2OC(O)(CO)[C@@H](O)[C@@H]2O)[C@H](O)[C@@H](O)[C@@H]1O (some centres unmarked) [Palatinose, palatinose]
deodorizing activity / effect against methyl mercaptan (in words) [1]: does not provide such the effect
Deodorant coefficient (%) [2]: 0.0%

OC[C@H]1O[C@@](CO)(O[C@H]2O[C@H](CO)[C@@H](O)[C@H](O)[C@H]2O)[C@@H](O)[C@@H]1O [Sucrose, sucrose]
Deodorant coefficient (%) [2]: 0.0%

Cc1occc(=O)c1O [maltols, 3-hydroxy-2-methyl-γ-pyrone]
change in composition of sulfides (methyl marcaptan, allyl marcaptan) by gas chromatography [3]: no change in the composition was observed

sodium copper chlorophyllin
Rate of deodorizing (%) [4]: 9.2%

Source: patent publication US6458828B1, “Deodorants, foods and beverages, and oral compositions as well as toiletry products” (Lotte Co., Ltd., priority 1999, dated 2002)
